Results as given in EP0966414B1, “TRIARYLMETHYL FREE RADICALS AS IMAGE ENHANCING AGENTS” (Amersham Health AS, priority 1997, dated 1998).

Test: ESR spectrum linewidth in aqueous solution
Type: physicochemical
Details: 100 G, singlet
Description: For the method according to the invention the preferred radicals are those which have relatively few transitions, e.g. less than 15, preferably less than 10, in their ESR spectra and radicals having narrow linewidth ESR transitions, e.g. up to 500 mG, preferably less than 150 mG, especially less than 60 mG and particularly less than 25mG, are especially preferred. (The linewidths referred to are conveniently the intrinsic linewidths (full width at half maximum in the absorption spectrum) under ambient conditions).

Substance | ESR linewidth (1.0 mM in H2O) | ESR linewidth (2.5 mM aqueous solution)
Tris (8-carboxyl-2,2,6,6-tetra (2-(1-hydroxy-2.2-d2-ethyl))-benzo[1,2-d:4,5-d']bis(1,3)dithiole -4-yl)methyl sodium salt [Example 21] | 70 mg | 
Tris(8-carboxy-2,2,6,6-tetra-(hydroxyethyl)benzo[1,2-d:4,5-d']bis(1,3)dithiole-4-yl)methyl sodium salt [Example 7] | 160 mg | 
Tris(8-carboxyl-2,2,6,6-tetra(hydroxyethyl)-benzo[1,2-d:4,5-d']bis(1,3)dithiole-4-yl)methyl N,N-bis(1,2-dihydroxyprop-3-yl)-acetamid-2-yl-ester [Example 23] | 226 mg | 

The remaining lines, values ahead:

ESR linewidth (1.0 mM in H2O) | ESR linewidth (2.5 mM aqueous solution) | Substance
 | 195 mg | Tris (8-carboxymethylthio-2,2,6,6-(2-(1-hydroxyethyl)) benzo[1,2-d:4,5-d']bis(1,3)dithiole-4-yl)methyl sodium salt [Example 9]
274 mg |  | Tris(8-[N,N-bis(2,3-dihydroxypropyl)aminocarbonylmethylthiol-2,2,6,6-tetra-(2-(1-hydroxyethyl))benzo[1,2-d:4,5-d'] bis(1,3)dithiole-4-yl)methyl [Example 11]
